This passage reports relative viability results from the supplement of paper PMC10307832.

Common to all, as to test: relative viability (nuclei count vs DMSO), 5 days (fraction); higher = more cells survive
Compound in assay [1]: CC1=CC(=CC=C1)NC2=NC(=CS2)C3=CC=NC=C3
Summed up: (§1)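 MetaXpress counted nuclei in 4× images of lung cancer cell lines that had been fixed, permeabilised and Hoechst-stained in one step. Before that, cells in 1536-well plates were kept overnight at 37 °C, pinned with five √10-spaced library-drug doses on vehicle-anchored plates, and cultured 5 days without medium change. Viability takes treated-well nuclei over vehicle-well nuclei and uses the median across plates. Plates were accepted only at control CV below 25% and at least one doubling.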

Compound in assay [2]: Cc1ccc(NC(=O)c2ccc(CN3CCN(C)CC3)cc2)cc1Nc1nc(-c2cccnc2)cs1 [Masitinib]
In outline: as §1

Compound in assay [3]: CC1=CC(=CC=C1)NC2=NC(=CS2)C3=CC=NC=C3 + COc1cc2c(Oc3ccc(NC(=O)C4(C(=O)Nc5ccc(F)cc5)CC4)cc3F)ccnc2cc1OCCCN1CCOCC1 [Foretinib] (partner 0.25 µM)
Summed up:
(§2)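 One day after seeding in 1536-well plates, lung cancer cell lines were dosed by pin tool. Dosing was either single-drug or a fixed anchor-drug dose plus five library-drug doses (not always all listed) in √10 steps. After 5 days, nuclei were stained in one fix-and-stain step and counted on 4× images, and relative viability is the nuclei count of treated wells over that of vehicle wells, given as the median of duplicate plates.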

Compound in assay [4]: Cc1ccc(NC(=O)c2ccc(CN3CCN(C)CC3)cc2)cc1Nc1nc(-c2cccnc2)cs1 [Masitinib] + CC(=O)c1c(C)c2cnc(Nc3ccc(N4CCNCC4)cn3)nc2n(C2CCCC2)c1=O [Palbociclib] (partner 0.5 µM)
In outline: as §2

As to UMC-11, the relative viability came out at 0.872 in assay [1] (0.08 µM); 0.927 in assay [1] (0.253 µM); 0.927 in assay [1] (0.8 µM); 0.93 in assay [1] (2.53 µM); 1.03 in assay [1] (8 µM); 0.926 in assay [2] (0.01 µM). For the same cell line, the relative viability in assay [2] (0.03162 µM) was found to be 0.969; in assay [2] (0.1 µM), 1.09; in assay [2] (0.3162 µM), 0.961; in assay [2] (1 µM), 1.06; in assay [3] (first compound 0.08 µM) it was 1.04; in assay [3] (first compound 0.253 µM), 1.04. The relative viability was 1.02 in assay [3] (first compound 0.8 µM); 1.15 in assay [3] (first compound 2.53 µM); 1.17 in assay [3] (first compound 8 µM); 0.323 in assay [4] (first compound 0.01 µM); 0.384 in assay [4] (first compound 0.03162 µM); 0.319 in assay [4] (first compound 0.1 µM). For the same cell line, the relative viability in assay [4] (first compound 0.3162 µM) stood at 0.351; in assay [4] (first compound 1 µM), 0.304.
